From US20230348487A1, “2-AMINOPYRIMIDINE COMPOUND AND PHARMACEUTICAL COMPOSITION THEREOF AND APPLICATION THEREOF” (GUANGZHOU SALUSTIER BIOSCIENCES CO., LTD., priority 2021, published 2023)

Tests used:
U937 cells = test: In vivo anti-tumor activity, U937 subcutaneous tumor in mice
Experimental: Animal model: 4-6 weeks old Male CB-17 SCID mice
U937 cells were cultured in vitro (1640+10% FBS+1% dual antibody) and amplified to 50 plates (10 cm). The cells were collected into a 50 mL centrifuge tube, centrifuged at 800 rpm for 5 minutes. The supernatant was discarded, and the cells was enriched into a 50 mL sterile centrifuge tube, washed once with PBS, and centrifuged at 800 rpm for 5 minutes. The cells were suspended with an appropriate amount of sterile PBS, counted and diluted to 2×10^7 cells/mL; 0.2 mL cells per animal were inoculated subcutaneously in the right anterior axilla of the animal (preferably inoculated before the animal is 20 g).
5-7 days after inoculation (Since U937 tumor grows fast, observe once every 3 days), when the tumor grew to 100-200 mm^3, the mice were grouped and administered the drugs, and excluded the animals with too large or too small tumors. The mice were randomly divided into a medication group and a solvent group, with 6 mice in each group. The initial tumor volume and body weight were recorded on the day of grouping.
The administration cycle was 10 days, and daily administration was applied. The body weight and tumor volume of animals were measured once every 2 days. The formula for calculating tumor volume is: V=π/6*a*b*b (wherein a and b are the length and width of the tumor, respectively). The next day after the end of administration, the animal was weighed and the tumor volume was measured; and then the animal was sacrificed and the tumor was dissected to weighed. The tumor body was fixed with neutral formalin for pathological observation. Animal blood samples were collected for routine blood analysis according to experimental needs, and the main organs of the animals were collected for pathological analysis. At the end of the study, all animals were euthanized and the tumors, livers, kidneys, and lungs of […] were collected for further analysis.

JAK1 = JAK1 (Homo sapiens (Human), UniProt P23458); test: Z′-Lyte kinase inhibitory activity test; assay type: biochemical; settings: ATP concentration Km
Sequence of JAK1 (P23458 whole entry): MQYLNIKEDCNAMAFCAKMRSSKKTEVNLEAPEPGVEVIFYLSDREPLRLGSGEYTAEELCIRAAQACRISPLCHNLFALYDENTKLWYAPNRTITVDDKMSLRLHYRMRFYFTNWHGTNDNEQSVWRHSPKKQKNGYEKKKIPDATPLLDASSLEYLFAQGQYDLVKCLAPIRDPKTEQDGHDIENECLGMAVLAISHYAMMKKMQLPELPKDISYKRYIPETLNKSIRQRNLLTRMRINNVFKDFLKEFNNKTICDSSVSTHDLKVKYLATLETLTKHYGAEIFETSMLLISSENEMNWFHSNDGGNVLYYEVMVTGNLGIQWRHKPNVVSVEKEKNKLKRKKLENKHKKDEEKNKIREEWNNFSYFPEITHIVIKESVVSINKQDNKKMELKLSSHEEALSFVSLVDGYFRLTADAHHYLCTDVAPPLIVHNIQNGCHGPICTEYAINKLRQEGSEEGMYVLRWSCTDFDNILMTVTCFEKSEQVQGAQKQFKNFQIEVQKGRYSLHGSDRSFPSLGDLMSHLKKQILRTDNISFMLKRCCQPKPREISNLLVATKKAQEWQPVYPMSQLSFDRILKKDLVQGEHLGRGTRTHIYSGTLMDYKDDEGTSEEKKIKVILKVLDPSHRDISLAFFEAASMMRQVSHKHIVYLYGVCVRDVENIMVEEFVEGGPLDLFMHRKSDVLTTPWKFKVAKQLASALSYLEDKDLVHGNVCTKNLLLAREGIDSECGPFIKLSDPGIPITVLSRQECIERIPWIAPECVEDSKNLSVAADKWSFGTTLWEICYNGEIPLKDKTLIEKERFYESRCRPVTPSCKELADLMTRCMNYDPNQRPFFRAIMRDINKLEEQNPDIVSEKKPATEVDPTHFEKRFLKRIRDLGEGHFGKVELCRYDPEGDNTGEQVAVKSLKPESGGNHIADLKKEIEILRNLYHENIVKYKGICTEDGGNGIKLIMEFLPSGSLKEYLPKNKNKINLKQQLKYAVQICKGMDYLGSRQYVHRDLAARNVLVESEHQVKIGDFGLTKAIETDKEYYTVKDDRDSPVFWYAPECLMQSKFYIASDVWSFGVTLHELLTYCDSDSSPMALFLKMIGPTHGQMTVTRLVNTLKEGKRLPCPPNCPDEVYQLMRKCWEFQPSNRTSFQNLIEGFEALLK
In short: (§1)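 FRET-based Z′-Lyte assay in 50 mM HEPES pH 7.5, 0.01% Brij-35, 10 mM MgCl2, 1 mM EGTA with 2 μM peptide substrate, titrated kinase and ATP; 10-point 3-fold dilutions from 10 μM final, 1.5 h kinase reaction at 30 °C, then 1 h development. Inhibition from substrate phosphorylation ratio.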

JAK2 = JAK2 (Homo sapiens (Human), UniProt O60674); test: Z′-Lyte kinase inhibitory activity test; assay type: biochemical; settings: ATP concentration Km
Sequence of JAK2 (O60674 whole entry): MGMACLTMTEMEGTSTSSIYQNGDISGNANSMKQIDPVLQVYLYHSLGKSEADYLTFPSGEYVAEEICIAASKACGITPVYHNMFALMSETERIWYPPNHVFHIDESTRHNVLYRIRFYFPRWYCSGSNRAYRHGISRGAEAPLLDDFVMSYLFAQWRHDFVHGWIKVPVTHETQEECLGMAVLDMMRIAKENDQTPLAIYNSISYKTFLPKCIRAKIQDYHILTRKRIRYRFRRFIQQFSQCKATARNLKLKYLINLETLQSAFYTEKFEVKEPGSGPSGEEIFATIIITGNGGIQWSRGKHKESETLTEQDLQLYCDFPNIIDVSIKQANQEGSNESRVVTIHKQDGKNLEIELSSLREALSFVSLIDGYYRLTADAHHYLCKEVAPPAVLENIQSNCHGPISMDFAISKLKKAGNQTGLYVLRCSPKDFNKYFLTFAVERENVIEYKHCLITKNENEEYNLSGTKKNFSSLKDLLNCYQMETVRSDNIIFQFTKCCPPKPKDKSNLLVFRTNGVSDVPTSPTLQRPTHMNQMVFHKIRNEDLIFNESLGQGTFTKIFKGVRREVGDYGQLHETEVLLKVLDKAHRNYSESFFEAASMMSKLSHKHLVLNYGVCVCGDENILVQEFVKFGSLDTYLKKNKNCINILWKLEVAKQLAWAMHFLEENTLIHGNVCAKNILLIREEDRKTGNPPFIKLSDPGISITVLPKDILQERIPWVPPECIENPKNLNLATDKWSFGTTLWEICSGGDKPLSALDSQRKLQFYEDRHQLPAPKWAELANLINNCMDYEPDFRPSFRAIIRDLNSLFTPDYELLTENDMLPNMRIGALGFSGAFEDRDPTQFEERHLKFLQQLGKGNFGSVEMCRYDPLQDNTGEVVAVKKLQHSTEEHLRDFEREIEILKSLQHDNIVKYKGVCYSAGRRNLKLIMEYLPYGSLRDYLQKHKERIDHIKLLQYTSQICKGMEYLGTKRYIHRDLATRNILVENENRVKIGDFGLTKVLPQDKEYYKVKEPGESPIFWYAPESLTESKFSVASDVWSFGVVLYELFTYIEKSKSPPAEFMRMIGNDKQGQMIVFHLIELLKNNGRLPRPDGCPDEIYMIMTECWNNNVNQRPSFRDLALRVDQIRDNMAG
In short: as §1

JAK3 = JAK3 (Homo sapiens (Human), UniProt P52333); test: Z′-Lyte kinase inhibitory activity test; assay type: biochemical
Sequence of JAK3 (P52333 whole entry): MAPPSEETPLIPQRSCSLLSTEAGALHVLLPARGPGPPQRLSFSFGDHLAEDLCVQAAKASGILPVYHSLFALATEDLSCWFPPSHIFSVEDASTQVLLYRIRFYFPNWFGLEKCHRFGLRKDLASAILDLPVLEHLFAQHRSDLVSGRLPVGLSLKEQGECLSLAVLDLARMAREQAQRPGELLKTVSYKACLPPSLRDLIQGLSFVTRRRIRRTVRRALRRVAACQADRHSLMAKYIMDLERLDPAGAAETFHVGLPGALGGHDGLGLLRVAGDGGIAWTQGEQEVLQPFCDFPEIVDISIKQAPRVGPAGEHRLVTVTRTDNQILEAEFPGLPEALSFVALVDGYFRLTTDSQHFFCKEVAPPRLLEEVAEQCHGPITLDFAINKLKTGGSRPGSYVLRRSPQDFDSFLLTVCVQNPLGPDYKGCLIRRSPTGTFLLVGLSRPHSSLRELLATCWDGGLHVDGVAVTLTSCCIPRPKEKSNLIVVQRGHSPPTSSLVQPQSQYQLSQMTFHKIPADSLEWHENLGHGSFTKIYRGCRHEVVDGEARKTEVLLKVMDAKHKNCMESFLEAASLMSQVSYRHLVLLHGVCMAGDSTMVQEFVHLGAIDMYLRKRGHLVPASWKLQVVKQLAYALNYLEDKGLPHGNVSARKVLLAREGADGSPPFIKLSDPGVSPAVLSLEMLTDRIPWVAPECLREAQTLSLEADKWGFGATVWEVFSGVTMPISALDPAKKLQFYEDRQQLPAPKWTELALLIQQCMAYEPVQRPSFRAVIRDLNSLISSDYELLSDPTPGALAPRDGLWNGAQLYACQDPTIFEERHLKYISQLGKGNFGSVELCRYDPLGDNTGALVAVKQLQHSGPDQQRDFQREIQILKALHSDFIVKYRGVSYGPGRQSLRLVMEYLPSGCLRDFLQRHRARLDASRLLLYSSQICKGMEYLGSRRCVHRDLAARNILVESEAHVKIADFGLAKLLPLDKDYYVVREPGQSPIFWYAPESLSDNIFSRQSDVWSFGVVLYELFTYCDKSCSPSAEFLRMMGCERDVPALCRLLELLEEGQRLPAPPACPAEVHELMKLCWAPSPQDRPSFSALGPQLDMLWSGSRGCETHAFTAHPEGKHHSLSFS
In short: as §1

TYK2 = TYK2 (Homo sapiens (Human), UniProt P29597); test: Z′-Lyte kinase inhibitory activity test; assay type: biochemical; settings: ATP concentration Km
Sequence of TYK2 (P29597 whole entry): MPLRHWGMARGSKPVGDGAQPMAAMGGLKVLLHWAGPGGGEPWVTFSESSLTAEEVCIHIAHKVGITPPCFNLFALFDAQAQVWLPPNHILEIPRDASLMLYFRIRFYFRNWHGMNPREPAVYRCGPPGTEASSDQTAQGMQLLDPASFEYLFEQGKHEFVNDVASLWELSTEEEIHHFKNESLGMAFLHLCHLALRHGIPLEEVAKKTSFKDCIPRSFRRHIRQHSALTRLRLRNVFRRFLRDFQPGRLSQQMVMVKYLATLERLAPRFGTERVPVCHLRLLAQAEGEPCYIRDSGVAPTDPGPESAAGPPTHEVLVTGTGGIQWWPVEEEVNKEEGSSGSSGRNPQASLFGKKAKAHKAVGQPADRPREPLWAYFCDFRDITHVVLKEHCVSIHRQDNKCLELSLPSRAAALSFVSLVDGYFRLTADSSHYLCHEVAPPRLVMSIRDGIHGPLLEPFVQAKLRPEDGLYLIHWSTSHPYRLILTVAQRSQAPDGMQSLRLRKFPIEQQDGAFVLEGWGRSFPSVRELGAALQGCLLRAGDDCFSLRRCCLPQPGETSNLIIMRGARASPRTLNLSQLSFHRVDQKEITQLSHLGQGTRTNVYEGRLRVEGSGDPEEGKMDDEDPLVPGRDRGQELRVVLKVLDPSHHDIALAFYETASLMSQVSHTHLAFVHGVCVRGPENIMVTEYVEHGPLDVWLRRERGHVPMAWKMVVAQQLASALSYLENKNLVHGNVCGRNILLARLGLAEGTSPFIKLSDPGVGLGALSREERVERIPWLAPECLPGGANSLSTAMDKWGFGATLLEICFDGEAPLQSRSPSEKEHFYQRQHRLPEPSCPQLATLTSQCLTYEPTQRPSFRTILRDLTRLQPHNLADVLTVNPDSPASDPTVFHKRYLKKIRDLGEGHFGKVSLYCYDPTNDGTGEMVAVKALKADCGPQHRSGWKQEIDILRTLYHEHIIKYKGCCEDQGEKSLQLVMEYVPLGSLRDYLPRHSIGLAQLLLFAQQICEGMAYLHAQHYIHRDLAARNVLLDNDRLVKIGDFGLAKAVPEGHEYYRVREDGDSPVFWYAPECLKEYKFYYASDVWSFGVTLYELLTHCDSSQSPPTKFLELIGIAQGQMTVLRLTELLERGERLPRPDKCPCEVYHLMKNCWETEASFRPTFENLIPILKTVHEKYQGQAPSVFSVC
In short: as §1

[1] = test system: phosphorylation of JAK3 and STAT5 in U937 cells; test: Wash out experiment in U937 cells; assay type: cell-based, human; settings: 200 nM 10 hours then removed
Experimental: Cell line: human acute myeloid leukemia cell line U937
After 200 nM test compound LS6-45 was co-incubated with U937 cells for 10 hours, the supernatant was discarded by centrifugation. The cells were collected and washed with PBS to remove residual compounds. After adding fresh culture medium, the cells continued to be cultured in a 37° C. incubator. Cells were collected at 0, 0.5, 1, 2, 4, 8, 12, and 16 hours, and protein was extracted for Western blot analysis.

[2] = In vivo pharmacokinetic properties in rats; set-up: species or system SD rats; settings: rat
Experimental: Species: SD rats, SPF grade.
Number of rats: 3 in each group, male.
The animals in the oral administration group were fasted overnight (10-14 hours) before administration, and were fed 4 hours after administration. The animals were weighed before administration, and the dosage was calculated based on body weight. The drug was administered intravenously (iv, 5 mg/kg) or orally by gavage (po, 15 mg/kg). Blood was collected from jugular vein at 0.083 h, 0.25 h, 0.5 h, 1 h, 2 h, 4 h, 6 h, and 8 h after administration. About 0.20 mL of each sample was collected, anticoagulated with heparin sodium, placed on ice after collection, and centrifuged to separate plasma within 1 hour (centrifugation condition: 6800 g, 6 minutes, 2-8° C.). Plasma samples were stored in a −80° C. freezer until analysis. […] Pharmacokinetic parameters were calculated using Phoenix WinNonlin7.0 based on the blood drug concentration data at different time points, providing the pharmacokinetic parameters and their average values, and standard deviations.

## C=CC(=O)Nc1cc(Nc2ncc(Cl)c(O[C@@H]3CO[C@H]4[C@@H]3OC[C@H]4OC)n2)ccc1N(C)CCN(C)C [LS 6-45]
U937 cells; CB-17 SCID mice, during the administration period
  toxic side effects and body weight: no toxic side effects and no signs of weight loss
U937 cells; U937 tumor in CB-17 SCID mice, 50 mg/kg dose group, oral bid
  tumor growth: completely stagnant or even regressed
U937 cells; U937 tumor in CB-17 SCID mice, during 10 days administration, versus control group
  growth rate of tumors: significantly lower than that of the control group
U937 cells; tumor tissues of experimental mice, compared with control group
  phosphorylation of JAK3, STAT3, STAT5 and cell cycle related proteins in tumor tissues (Western blot): significant inhibitory effects
JAK1
  IC50: 13000 nM
JAK2
  IC50: 2040 nM
JAK3; ATP concentration 1 mM
  IC50: 1.53 nM
JAK3; ATP concentration Km
  IC50: 1.25 nM
TYK2
  IC50: 1080 nM
[1]; between 8-12 hours
  phosphorylation levels of JAK3 and STAT5 after wash out: slowly recovered
[1]; within 8 hours
  phosphorylation levels of JAK3 and STAT5 after wash out: continuously inhibited
[2]; male, SD, plasma, iv 5 mg/kg
  clearance: 155 ± 2.83 mL/min/kg
[2]; iv 5 mg/kg
  AUC(0-∞): 536.99 ± 9.89 ng·h/mL
  Cmax: 911.33 ± 139.73 ng/mL
[2]; po 15 mg/kg
  AUC(0-∞): 333.50 ± 45.52 ng·h/mL
  Cmax: 238.28 ± 13.68 ng/mL
  F (oral availability): 20.66 ± 2.83%
[2]; po 15 mg/kg, listed as LS6-45
  F (oral availability): 20.66%
